Columns and labels:
[1] = conversion of the prodrugs into active substance II, plasma concentration by HPLC-MS/MS after subcutaneous administration; assay type: in vivo; conditions: rabbits, after subcutaneous injection, active substance II measured in plasma, detection limit 4 ng/ml
Procedure: In order to investigate the conversion of the prodrugs A and B into the active substance II, 1.0 ml of blood were taken from the central auricular artery of each of the test animals with K-EDTA syringes at various times after subcutaneous administration. The blood was centrifuged and the plasma was acidified with the same volume of 0.2 M hydrochloric acid. These solutions were stored at −20° C. The concentrations of the active substance II were measured using an HPLC-MS/MS apparatus (Perkin Elmer Sciex API 300 LC-MS/MS system). The detection limit was 4 ng/ml.

female rabbits = assay: local tolerance after subcutaneous administration, histological comparison of injection sites with placebo sites; assay type: in vivo
Excerpt: For example the compounds • A=1-methyl-2-[4-(N-hydroxyamidino)-phenylaminomethyl]-benzimidazol-5-yl-carboxylic acid-(N-2-pyridyl-N-2-ethoxycarbonylethyl)-amide and • B=1-methyl-2-[4-(N-methoxycarbonylamidino)-phenylaminomethyl]-benzimidazol-5-yl-carboxylic acid-(N-2-pyridyl-N-2-hydroxycarbonylethyl)-amide were investigated for their degree of tolerance when administered by subcutaneous route by comparison with active substance II:
Solutions of the test substances were each administered by subcutaneous route once a day on three successive days to two female rabbits (age: 11 to 14 weeks, weight: 2.0 to 3.5 kg). At the same time as the substances were administered a placebo solution was injected contralaterally into the same animal. The animals were killed 48 hours after the last administration and dissected. The injection sites for administering the test substances were compared histologically with the sites of the placebo injections.

Structure (SMILES)	conversion of the prodrug into the active substance II [1]	degree of tolerance at the injection sites when administered by subcutaneous route (female rabbits; rabbit, in vivo, sc)	degree of tolerance at the injection sites when administered by subcutaneous route (female rabbits; female rabbits, subcutaneous once a day on three successive days, histology 48 hours after the last administration, versus contralateral placebo injection)
CCOC(=O)CCN(C(=O)c1ccc2c(c1)nc(CNc1ccc(/C(N)=N\O)cc1)n2C)c1ccccn1 [A, 1-methyl-2-[4-(N-hydroxyamidino)-phenylaminomethyl]-benzimidazol-5-yl-carboxylic acid-(N-2-pyridyl-N-2-ethoxycarbonylethyl)-amide]	converted into the active substance II	very well tolerated locally	–
COC(=O)/N=C(/N)c1ccc(NCc2nc3cc(C(=O)N(CCC(=O)O)c4ccccn4)ccc3n2C)cc1 [B, 1-methyl-2-[4-(N-methoxycarbonylamidino)-phenylaminomethyl]-benzimidazol-5-yl-carboxylic acid-(N-2-pyridyl-N-2-hydroxycarbonylethyl)-amide]	converted into the active substance II	–	very well tolerated locally
Cn1c(CNc2ccc(C(=N)N)cc2)nc2cc(C(=O)N(CCC(=O)O)c3ccccn3)ccc21 [II, 1-methyl-2-(4-amidinophenylaminomethyl)-benzimidazol-5-yl-carboxylic acid-(N-2-pyridyl-N-2-hydroxycarbonylethyl)-amide]	–	clear signs of inflammation at the injection sites	–

Source: patent US20050137233A1, “Prodrugs of 1-methyl-2-(4-amidinophenylaminomethyl)-benzimidazol-5-yl-carboxylic acid-(N-2-pyridyl-N-2-hydroxycarbonylethyl)-amide” (Boehringer Ingelheim Pharma GmbH & Co. KG, priority 2002, published 2005)
